ChEMBL document CHEMBL3758126, “Synthesis of 4-sulfamoylphenyl-benzylamine derivatives with inhibitory activity against human carbonic anhydrase isoforms I, II, IX and XII” (Bioorg Med Chem, 2016)

Assays:
Carbonic anhydrase 9 = Carbonic anhydrase 9 (Homo sapiens, UniProt Q16790)
Description: Inhibition of human recombinant carbonic anhydrase 9 preincubated for 15 mins by stopped-flow CO2 hydrase assay

Carbonic anhydrase 1 = Carbonic anhydrase 1 (Homo sapiens, UniProt P00915)
Description: Inhibition of human recombinant carbonic anhydrase 1 preincubated for 15 mins by stopped-flow CO2 hydrase assay

Carbonic anhydrase 12 = Carbonic anhydrase 12 (Homo sapiens, UniProt O43570)
Carbonic anhydrase 12, sequence (O43570 whole entry): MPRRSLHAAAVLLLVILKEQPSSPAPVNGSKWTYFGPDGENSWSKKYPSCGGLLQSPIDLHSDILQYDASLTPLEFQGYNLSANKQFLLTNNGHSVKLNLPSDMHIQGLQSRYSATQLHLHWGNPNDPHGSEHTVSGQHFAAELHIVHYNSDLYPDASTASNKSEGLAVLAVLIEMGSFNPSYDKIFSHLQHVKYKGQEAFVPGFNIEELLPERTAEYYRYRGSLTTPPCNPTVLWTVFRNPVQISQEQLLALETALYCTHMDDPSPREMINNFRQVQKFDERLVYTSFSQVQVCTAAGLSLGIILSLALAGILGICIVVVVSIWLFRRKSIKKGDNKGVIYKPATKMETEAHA
Description: Inhibition of human recombinant carbonic anhydrase 12 preincubated for 15 mins by stopped-flow CO2 hydrase assay

Carbonic anhydrase 1, sequence (P00915 whole entry): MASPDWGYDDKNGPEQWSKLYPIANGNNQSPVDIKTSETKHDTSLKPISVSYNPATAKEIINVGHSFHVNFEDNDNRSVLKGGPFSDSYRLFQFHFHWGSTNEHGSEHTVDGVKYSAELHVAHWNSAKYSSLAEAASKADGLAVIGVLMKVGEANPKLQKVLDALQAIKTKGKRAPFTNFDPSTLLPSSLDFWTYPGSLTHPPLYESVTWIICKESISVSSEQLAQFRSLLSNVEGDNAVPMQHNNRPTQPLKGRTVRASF

| SMILES | Ki (Carbonic anhydrase 9) [nM] | Ki (Carbonic anhydrase 1) [nM] | Ki (Carbonic anhydrase 12) [nM] |
| --- | --- | --- | --- |
| NS(=O)(=O)c1ccc(/N=C/c2cc(Br)cc(Br)c2O)cc1 | 360 | > 50000 |  |
| NS(=O)(=O)c1ccc(/N=C/c2ccc(OCc3ccccc3)cc2)cc1 | 36 | > 50000 |  |
| COc1ccc(/C=N/c2ccc(S(N)(=O)=O)cc2)cc1 | 883 | > 50000 | 11.2 |
| NS(=O)(=O)c1ccc(NCc2ccc(OCc3ccccc3)cc2)cc1 | 2.5 |  |  |
| NS(=O)(=O)c1ccc(NCc2cc(Cl)ccc2O)cc1 | 2.4 |  |  |
| COc1ccc(CNc2ccc(S(N)(=O)=O)cc2)cc1 | 2.2 | 21.9 | 427 |
| Cc1ccc(/C=N/c2ccc(S(N)(=O)=O)cc2)cc1 |  | > 50000 | 9.9 |
| NS(=O)(=O)c1ccc(NCc2cc(Cl)cc(Cl)c2O)cc1 | 2.2 |  |  |
| CN(C)c1ccc(/C=N/c2ccc(S(N)(=O)=O)cc2)cc1 | 41.5 | 421 | 8.8 |
| NS(=O)(=O)c1ccc(/N=C/c2cc(Cl)cc(Cl)c2O)cc1 | 35.6 |  |  |
| CN(C)c1ccc(CNc2ccc(S(N)(=O)=O)cc2)cc1 | 2.4 |  | > 50000 |
| NS(=O)(=O)c1ccc(/N=C/c2cc(Br)ccc2O)cc1 | 257 |  |  |
| NS(=O)(=O)c1ccc(/N=C/c2ccccc2O)cc1 | 952 |  |  |
| NS(=O)(=O)c1ccc(NCc2ccccc2O)cc1 | 2.9 |  |  |
| NS(=O)(=O)c1ccc(/N=C/c2ccccc2)cc1 | 454 | > 50000 | 11.1 |
| NS(=O)(=O)c1ccc(NCc2cc(Br)cc(Br)c2O)cc1 | 2.3 |  |  |
| Cc1cccc(/C=N/c2ccc(S(N)(=O)=O)cc2)c1O | 465 |  |  |
| Cc1ccc(CNc2ccc(S(N)(=O)=O)cc2)cc1 | 2.1 |  |  |
| Cc1cccc(CNc2ccc(S(N)(=O)=O)cc2)c1O | 2.3 |  |  |
| NS(=O)(=O)c1ccc(/N=C/c2cc(Cl)ccc2O)cc1 | 47.9 | > 50000 |  |
